The record followed here is patent US20200369629A1, “BENZAMIDE COMPOUNDS AND THEIR USE AS HERBICIDES” (BASF SE, priority 2017, published 2020).

What all share (type): in vivo
One experiment concerns SETFA (Setaria faberi). As to the kind of experiment: Greenhouse pre-emergence test, test series 2, SETFA. To be noted: application rate 125 g/ha, scale 0 to 100 (100 = no emergence, 0 = no damage). From the text: (§1) The seeds of the test plants were sown separately for each species. For the pre-emergence treatment, the active ingredients, which had been suspended or emulsified in water, were applied directly after sowing by means of finely distributing nozzles. The containers were irrigated gently to promote germination and growth and subsequently covered with transparent plastic hoods until the plants had rooted. This cover caused uniform germination of the test plants, unless this had been impaired by the active ingredients. For the post-emergence treatment, the test plants were first grown to a height of 3 to 15 cm, depending on the plant habit, and only then treated with the active ingredients which had been suspended or emulsified in water. For this purpose, the test plants were either sown directly and grown in the same containers, or they were first grown separately as seedlings and transplanted into the test containers a few days prior to treatment. Depending on the species, the plants were kept at 10-25° C. or 20-25° C., respectively. The test period extended over 2 to 4 weeks. During this time, the plants were tended, and their response to the individual treatments was evaluated. Evaluation was carried out using a scale from 0 to 100. 100 means no emergence of the plants, or complete destruction of at least the aerial moieties, and 0 means no damage, or normal course of growth. A good herbicidal activity is given at values of at least 70 and a very good herbicidal activity is given at values of at least 85. Test Series 2: At an application rate of 125 g/ha the following compounds were tested in pre-emergence tests against SETFA (Setaria faberi)

For experiment [1], the system named is CHEAL (Chenopodium album). The experiment is described as follows: Greenhouse post-emergence test, test series 1, CHEAL. Particulars: application rate 62.5 g/ha, scale 0 to 100 (100 = complete destruction, 0 = no damage).
Text: as §1, with “Series 1:” for “Series 2:”, “of 62.5” for “of 125”, “in post-emergence” for “in pre-emergence”, “tests against: CHEAL (Chenopodium album)” for “tests against SETFA (Setaria faberi)”

In experiment [2] the test system is AMARE (Amaranthus retroflexus). As to the kind of experiment: Greenhouse post-emergence test, test series 1, AMARE. To be noted: application rate 62.5 g/ha, scale 0 to 100 (100 = complete destruction, 0 = no damage).
Text: as §1, with “Series 1:” for “Series 2:”, “of 62.5” for “of 125”, “in post-emergence” for “in pre-emergence”, “tests against: AMARE (Amaranthus retroflexus)” for “tests against SETFA (Setaria faberi)”

Broadly, the pest or weed control is the degree to which the test organism was suppressed or injured, in per cent. Read a low pest or weed control as a weak effect.

Bounds are passed on as bounds.

In the case of `Cc1c(NC(=O)N(C)CC(F)(F)F)c(Br)cc(F)c1C(=O)Nc1nnnn1C` [Example 1, 4-bromo-6-fluoro-2-methyl-N-(1-methyltetrazol-5-yl)-3-[[methyl(2,2,2-trifluoroethyl)carbamoyl]amino]benzamide], in the experiment with SETFA (Setaria faberi), the pest or weed control at 125 g/ha was greater than 85%. Also, the pest or weed control at 62.5 g/ha in experiment [1] and in experiment [2] was greater than 85% throughout.

Turning to `CCN(CC(F)(F)F)C(=O)Nc1c(Br)cc(F)c(C(=O)Nc2nnnn2C)c1C` [Example 2, 4-bromo-6-fluoro-2-methyl-N-(1-methyltetrazol-5-yl)-3-[[ethyl(2,2,2-trifluoroethyl)carbamoyl]amino]benzamide], the pest or weed control at 125 g/ha with SETFA (Setaria faberi) was greater than 85%. For the same compound, the pest or weed control at 62.5 g/ha in experiment [1] and in experiment [2] was greater than 85% in each case.

In the experiment with SETFA (Setaria faberi), `Cc1c(NC(=O)N(CC(F)(F)F)CC(F)(F)F)c(Br)cc(F)c1C(=O)Nc1nnnn1C` [Example 3] yielded a pest or weed control at 125 g/ha greater than 85%. Further, the pest or weed control at 62.5 g/ha in experiment [1] and in experiment [2] was greater than 85% in each case.

`Cc1c(NC(=O)N(CC(F)(F)F)C2CC2)c(Br)cc(F)c1C(=O)Nc1nnnn1C` [Example 6]: the pest or weed control at 125 g/ha in the experiment with SETFA (Setaria faberi) was greater than 85%. For the same compound, the pest or weed control at 62.5 g/ha in experiment [1] and in experiment [2] was greater than 85% throughout.

In turn, `Cn1nnnc1NC(=O)c1c(F)cc(Cl)c(NC(=O)N(CC(F)(F)F)C2CC2)c1Cl` [Example 7] displayed a pest or weed control at 125 g/ha in the experiment with SETFA (Setaria faberi) greater than 85%. The pest or weed control at 62.5 g/ha in experiment [1] and in experiment [2] was greater than 85% in each case.

For the compound `CCN(CC(F)(F)F)C(=O)Nc1c(Cl)cc(F)c(C(=O)Nc2nnnn2C)c1Cl` [Example 8], the pest or weed control at 125 g/ha in the experiment on SETFA (Setaria faberi) was greater than 85%. Besides, the pest or weed control at 62.5 g/ha in experiment [1] and in experiment [2] was greater than 85% each time.

Turning to `CN(CC(F)(F)F)C(=O)Nc1c(Cl)cc(F)c(C(=O)Nc2nnnn2C)c1Cl` [Example 9, 2,4-dichloro-6-fluoro-N-(1-methyltetrazol-5-yl)-3-[[methyl(2,2,2-trifluoroethyl)carbamoyl]amino]benzamide], the pest or weed control at 62.5 g/ha in experiment [1] and in experiment [2] was greater than 85% throughout.

As to `CN(CC(F)(F)F)C(=O)Nc1c(C(F)(F)F)cc(F)c(C(=O)Nc2nnnn2C)c1Cl` [Example 10], the pest or weed control at 125 g/ha in the experiment on SETFA (Setaria faberi) is greater than 85%. Also, the pest or weed control at 62.5 g/ha in experiment [1] and in experiment [2] was greater than 85% in each case.

Consider `Cc1c(NC(=O)N(C)CC(F)(F)F)c(Cl)cc(F)c1C(=O)Nc1nnnn1C` [Example 12], for which the pest or weed control at 62.5 g/ha in experiment [1] and in experiment [2] was greater than 85% throughout.

On to `Cc1c(NC(=O)N(CC(F)(F)F)C(C)C)c(Cl)cc(F)c1C(=O)Nc1nnnn1C` [Example 13], for which the pest or weed control at 125 g/ha with SETFA (Setaria faberi) was greater than 85%. For the same compound, the pest or weed control at 62.5 g/ha in experiment [1] and in experiment [2] was greater than 85% each time.

The compound `CC(C)N(CC(F)(F)F)C(=O)Nc1c(C(F)(F)F)cc(F)c(C(=O)Nc2nnnn2C)c1Cl` [Example 14] gave a pest or weed control at 125 g/ha in the experiment with SETFA (Setaria faberi) greater than 85%. Also, the pest or weed control at 62.5 g/ha in experiment [1] and in experiment [2] was greater than 85% in each case.

With `CCN(CC(F)(F)F)C(=O)Nc1c(Cl)cc(F)c(C(=O)Nc2nnnn2C)c1C` [Example 18], the pest or weed control at 125 g/ha in the experiment with SETFA (Setaria faberi) is greater than 85%. Besides, the pest or weed control at 62.5 g/ha in experiment [1] and in experiment [2] was greater than 85% throughout.

In the case of `Cc1c(NC(=O)N(CC(F)(F)F)CC(F)(F)F)c(Cl)cc(F)c1C(=O)Nc1nnnn1C` [Example 19], the pest or weed control at 62.5 g/ha in experiment [1] and in experiment [2] was greater than 85% each time.

For the compound `CC(C)N(CC(F)(F)F)C(=O)Nc1c(Cl)cc(F)c(C(=O)Nc2nnnn2C)c1Cl` [Example 20], the pest or weed control at 62.5 g/ha in experiment [1] and in experiment [2] was greater than 85% each time.

`Cc1c(NC(=O)N(CC(F)(F)F)C2CC2)c(Cl)cc(F)c1C(=O)Nc1nnnn1C` [Example 21] had a pest or weed control at 125 g/ha with SETFA (Setaria faberi) greater than 85%. Further, the pest or weed control at 62.5 g/ha in experiment [1] and in experiment [2] was greater than 85% in each case.

Turning to `Cn1nnnc1NC(=O)c1c(F)cc(C(F)(F)F)c(NC(=O)N(CC(F)(F)F)CC(F)(F)F)c1Cl` [Example 22], the pest or weed control at 125 g/ha in the experiment on SETFA (Setaria faberi) is greater than 85%. In addition, the pest or weed control at 62.5 g/ha in experiment [1] and in experiment [2] was greater than 85% each time.
